Measured values: patent US8865721B2, “Delta opioid receptor agonist compounds” (priority 2001, dated 2014)
“Also recorded” adds a separate entry of the source. Where two headings read alike, the source gives them in different places.

How the values were obtained:
[1] = tested on: male CD-1 mice, electrically stimulated ejaculation; experiment: electroejaculation test in conscious male mice (bipolar rectal probe); assay type: in vivo, mouse; conditions: for Effective Dose / Ejaculation Inhibition % / Max. ejaculation Inhibition / Optimal Dose: male mice; for Effective Dose / Ejaculation Inhibition %: oral; for Ejaculation Inhibition %: at the effective dose; for Max. ejaculation Inhibition / Optimal Dose: subcutaneous injection; for Max. ejaculation Inhibition: at the optimal dose; for Optimal Dose: dose giving max. ejaculation inhibition
Procedure: To investigate the efficacy of delta opioid receptor agonists as a treatment for premature ejaculation, intact conscious male mice were electrically stimulated subsequent to the administration of a delta opioid receptor agonist to determine if a delay in ejaculation was observed when compared to administration of a placebo
Male, CD-1 mice (20-30 g) were housed in groups of ten (10) in Plexiglas® chambers with food and water available before any procedure. Animals were maintained on a 12 hour light/dark cycle in a temperature-controlled animal colony. Studies were carried out in accordance with the Guide for the Care and Use of Laboratory animals as adopted and promulgated by the National Institutes of Health.
Specifically, the bipolar electrode probe is an approximately 5 cm long tube having an outer diameter of approximately 0.25 cm with an inner diameter of approximately 0.08. In the center lumen of the elongated tubular body 12 are embedded cathode 16 and anode 18, which are formed of a conductive material, preferably platinum. The cathode 16 and anode 18 are connected at one end to external power supplying means (not shown). Anode 18 extends at the other end all the way to one extremity of the elongated body 12 and forming an anode terminal 22 at such extremity. Cathode 16 only extends to a middle portion of the elongated body 12 and forming a cathode terminal 20 at such middle portion. The cathode terminal 20 is preferably positioned away from the anode terminal 22, at a distance of about 0.5 cm.
The testing delta opioid receptor agonist (SNC-80) was purchased from Tocris Cookson, Inc., Ellisville, Mo., USA, and dissolved in 5% dextrose injection solution. An equimolar amount of aqueous hydrochloric acid was added when the manufacturer packaged the compound in its base form. The placebo was 5% dextrose alone. Each mouse was injected subcutaneously with […] of the SNC-80 compound or with 10 mg/kg of a placebo. 10 minutes after the injection, the test mouse was subjected to electrostimulation. Ten mice were tested for each dose level, the order of each mouse receiving different doses was blinded and in a random manner.
During the testing the mouse was restrained in a cone bag with rear legs extending from the bag. Excess fecal matter was removed from the rectum and the above-discussed lubricated bipolar electrode was inserted approximately 2.5 cm into the rectum. […] The stimulation regime included 4 stimulating events for each voltage lasting 2 seconds with a rest period of 2 seconds between stimulating events until ejaculation occurred or the terminal voltage of 8 volts was reached. A white coagulum ejaculate from the penis indicates a successful ejaculation.
For the electroejaculation test, dose-response lines were constructed as an accumulated ejaculation at a specified voltage. A minimum of 10 mice was used at each dose level. Each dose response was the average of two to three independent experiments. Students' t-test was used to assess unpaired comparison, with […] indicating significance.
Testing was conducted on mice injected with SNC-80 or a buffer vehicle for the control group. […] Each mouse was subjected to electroejaculation at 40 Hz (starting at 3 volts with a gradual increase to 8 volts by increments of 0.5 volts) approximately 10 minutes after subcutaneous administration of SNC-80 at different doses of 0, 0.1, 0.3 and 1 mg/kg. A minimum of 10 mice were used at each dose level. Each does response was the average of two to three independent experiments±SEM.
To determine if SNC-80 inhibits the ejaculation via specific binding to delta opioid receptor, the effect of SNC-80 on ejaculation was tested against the delta opioid selective antagonist naltrindole (NTI). Subcutaneous injections of a control vehicle (CTL), 0.5 mg/kg SNC-80, 0.5 mg/kg SNC-80 plus 0.1 mg/kg of NTI and 0.1 mg/kg of NTI were administered to the mice. A minimum of 10 mice was utilized for each dose level. […]

delta opioid receptor = delta opioid receptor (Homo sapiens, UniProt P41143); experiment: radio-ligand competition binding assay, δ
mouse vas deferens [2] = experiment: in vitro inhibition of electrically stimulated contraction of mouse vas deferens in tissue bath
κ opioid receptor = κ opioid receptor (Homo sapiens, UniProt P41145); experiment: radio-ligand competition binding assay, κ
μ opioid receptor = μ opioid receptor (Homo sapiens, UniProt P35372); experiment: radio-ligand competition binding assay, μ
mouse vas deferens [3] = conditions: background statement; cited from earlier work
[4] = radio-ligand competition binding per U.S. Pat. Nos. 5,985,880 and 5,807,858, read-out: δ binding affinity
[5] = radio-ligand competition binding per U.S. Pat. Nos. 5,985,880 and 5,807,858, read-out: κ binding affinity

| Molecule | Effective Dose [1] [mg/kg] | Ejaculation Inhibition % [1] [%] | EC50 (mouse vas deferens [2]) [nM] | Max. ejaculation Inhibition [1] [%] | Optimal Dose [1] [mg/kg] | also measured |
| --- | --- | --- | --- | --- | --- | --- |
| 4-(alpha-R)-alpha-((2S,5R)-4-(Cyclopropylmethyl)-2,5-dimethyl-1-piperazinyl)-3-hydroxybenzyl)-N,N-diethylbenzamide [Example 35] | 0.3 | 60 |  |  |  |  |
| CCN(CC)C(=O)c1ccc([C@H](c2cccc(O)c2)N2C[C@@H](C)N(Cc3ccc(F)cc3)C[C@@H]2C)cc1 [Example 11, 4-((alpha-R)-alpha-((2S,5R)-2,5-Dimethyl-4-(4-fluorobenzyl)-1-piperazinyl)-3-hydroxybenzyl)-N,N-diethylbenzamide] |  |  | 2.8 | 30 | 5 | Ki (delta opioid receptor; [4]): 1.23 nM; Ki (κ opioid receptor; [5]): > 100 nM; Ki (μ opioid receptor): 27.1 nM |
| CCN(CC)C(=O)c1ccc([C@H](c2cccc(O)c2)N2C[C@@H](C)N(Cc3ccccc3)C[C@@H]2C)cc1 [Example 12, 4-((alpha-R)-alpha-((2S,5R)-4-Benzyl-2,5-dimethyl-1-piperazinyl)-3-hydroxybenzyl)-N,N-diethylbenzamide] |  |  | 4.4 | 28 | 5 | Ki (delta opioid receptor; [4]): 0.123 nM; Ki (κ opioid receptor; [5]): 68.7 nM; Ki (μ opioid receptor): 1.45 nM |
| CCN(CC)C(=O)c1ccc([C@H](c2cccc(O)c2)N2C[C@@H](C)N(Cc3ccc(C(=O)O)cc3)C[C@@H]2C)cc1 [Example 13, 4-{(2R,5S)-4-[(R)-(4-Diethylcarbamoylphenyl)(3-hydroxyphenyl)methyl]-2,5-dimethylpiperazin-1-ylmethyl)benzoic acid] |  |  | 21.2 | 50 | 5 | Ki (delta opioid receptor): 5.69 nM; Ki (κ opioid receptor): > 100 nM; Ki (μ opioid receptor): 3470 nM |
| C=CCN1C[C@H](C)N([C@H](c2ccc(C(=O)N(CC)CC)cc2)c2cccc(OCC(=O)O)c2)C[C@H]1C [Example 14, 3-((alpha-R)-alpha-((2S,5R)-4-Allyl-2,5-dimethyl-1-piperazinyl)-4-(diethylamino-carbonyl)benzyl)phenoxyacetic acid] | 0.01 | 45 | 7.2 | 35 | 10 | Ki (delta opioid receptor): 11.1 nM; Ki (κ opioid receptor): > 100 nM; Ki (μ opioid receptor; radio-ligand competition binding per U.S. Pat. Nos. 5,985,880 and 5,807,858, read-out: μ binding affinity): 162 nM |
| CCN(CC)C(=O)c1ccc([C@H](c2cccc(OCC(=O)O)c2)N2C[C@@H](C)N(Cc3ccccc3)C[C@@H]2C)cc1 [Example 15, 3-((alpha-R)-alpha-((2S,5R)-4-Benzyl-2,5-dimethyl-1-piperazinyl)-4-(diethylaminocarbonyl)benzyl)phenoxyacetic acid] | 3 | 66 |  |  |  |  |
| CCN(CC)C(=O)c1cccc([C@H](c2cccc(O)c2)N2C[C@@H](C)N(Cc3cccc(O)c3)C[C@@H]2C)c1 [Example 17, N,N-Diethyl-3-((R)-((2S,5R)-2,5-dimethyl-4-(3-hydroxybenzyl)piperazin-1-yl)(3-hydroxyphenyl)methyl)benzamide] |  |  | 2.9 | 50 | 1 | Ki (delta opioid receptor; [4]): 0.66 nM; Ki (κ opioid receptor; [5]): 20.9 nM; Ki (μ opioid receptor): 1.28 nM |
| CCN(CC)C(=O)c1ccc([C@H](c2cccc(OC)c2)N2C[C@@H](C)N(Cc3ccc(F)cc3)C[C@@H]2C)cc1 [Example 29, 4-((alpha-R)-alpha-((2S,5R)-2,5-Dimethyl-4-(4-fluorobenzyl)-1-piperazinyl)-3-methoxybenzyl)-N,N-diethylbenzamide] | 3 | 38 |  |  |  |  |
| CCN(CC)C(=O)c1ccc([C@H](c2cccc(O)c2)N2C[C@@H](C)N(Cc3cccc(F)c3)C[C@@H]2C)cc1 [Example 36, 4-((alpha-R)-alpha-((2S,5R)-2,5-Dimethyl-4-(3-fluorobenzyl)-1-piperazinyl)-3-hydroxybenzyl)-N,N-diethylbenzamide] | 3 | 60 |  |  |  |  |
| CCN(CC)C(=O)c1ccc([C@H](c2ccccc2)N2C[C@@H](C)N(Cc3ccc(O)cc3)C[C@@H]2C)cc1 [Example 37, 4-((alpha-S)-alpha-((2S,5R)-2,5-Dimethyl-4-(4-hydroxybenzyl)-1-piperazinyl)-benzyl)-N,N-diethylbenzamide] | 3 | 50 |  |  |  |  |
| CCN(CC)C(=O)c1ccc([C@H](c2cccc(OC)c2)N2C[C@@H](C)N(Cc3ccccc3)C[C@@H]2C)cc1 [Example 38] | 3 | 33 |  |  |  |  |
| CCN(CC)C(=O)c1ccc([C@H](c2cccc(OC)c2)N2C[C@@H](C)N(Cc3ccccc3F)C[C@@H]2C)cc1 [Example 39, 4-((alpha-R)-alpha-((2S,5R)-2,5-Dimethyl-4-(2-fluorobenzyl)-1-piperazinyl)-3-methoxybenzyl)-N,N-diethylbenzamide] | 10 | 50 |  |  |  |  |
| C=CCN1C[C@@H](C)N([C@H](c2ccc(S(=O)(=O)N(C)C)cc2)c2cccc(O)c2)C[C@@H]1C [Example 40, 4-[(R)-((2R,5S)-4-Allyl-2,5-dimethylpiperazin-1-yl)(3-hydroxyphenyl)methyl]-N,N-dimethylbenzenesulfonamide] | 0.3 | 50 |  |  |  |  |
| CCN(CC)C(=O)c1ccc([C@H](c2ccccc2)N2C[C@H](C)N(Cc3cccc(F)c3)C[C@H]2C)cc1 [Example 41, 4-((alpha-S)-alpha-((2R,5S)-2,5-Dimethyl-4-(3-fluorobenzyl)-1-piperazinyl)benzyl)-N,N-diethylbenzamide] | 0.4 | 75 |  |  |  |  |
| Oc1ccc2c3c1O[C@H]1c4[nH]c5ccccc5c4C[C@@]4(O)[C@@H](C2)N(CC2CC2)CC[C@]314 [NTI, naltrindole, reference compound] |  |  |  |  |  | ejaculation response, antagonist alone ([1]; 0.1 mg/kg subcutaneous, 35 Hz, FIG. 4): did not affect the ejaculation response |
| C=CCN1C[C@H](C)N([C@H](c2ccc(C(=O)N(CC)CC)cc2)c2cccc(OC)c2)C[C@H]1C [SNC-80, reference compound] |  |  |  |  |  | contraction of mouse vas deferens smooth muscle in vitro (mouse vas deferens [3]): block the contraction of mouse vas deferens smooth muscle in vitro; inhibitory effect on ejaculation at reduced dose ([1]; 0.1 mg/kg subcutaneous, 40 Hz, FIG. 3): inhibitory effect diminished; inhibitory effect on ejaculation with co-injected antagonist ([1]; 0.5 mg/kg SNC-80 plus 0.1 mg/kg NTI subcutaneous, 35 Hz, FIG. 4): abolished; also recorded: inhibitory effect was blocked; reduction of ejaculation (factor) ([1]; 0.5 mg/kg subcutaneous, 35 Hz, 10 minutes after injection, FIG. 4): at least 2; occurrence of ejaculation versus control group ([1]; 1 mg/kg subcutaneous, 40 Hz, 10 minutes after injection, FIG. 3): significantly reduced the occurrence of ejaculation |
